ChEMBL document CHEMBL1821612, “Discovery of novel antitubercular 3a,4-dihydro-3H-indeno[1,2-c]pyrazole-2-carboxamide/carbothioamide analogues” (Bioorg Med Chem Lett, 2011)
Converted amounts (≈) assume the structure as drawn.

Test system: Mycobacterium tuberculosis
Test: Antimycobacterial activity against Mycobacterium tuberculosis H37Rv after 2 weeks by BACTEC 460 radiometric method
Assay type: functional
Conditions: 336 h

Row | Compound | MIC [µM]
1 | COc1cc2c(cc1OC)C1=NN(C(=O)Nc3ccc(C)cc3C)C(c3ccncc3)C1C2 (stereo unspecified) | 10 (≈ 4.43 µg/mL)
2 | COc1cc2c(cc1OC)C1=NN(C(=O)Nc3ccc(C)cc3C)C(c3ccccc3Cl)C1C2 (stereo unspecified) | 6.25 (≈ 2.97 µg/mL)
3 | COc1cc2c(cc1OC)C1=NN(C(=O)Nc3ccc(C)cc3C)C(c3ccc(F)cc3)C1C2 (stereo unspecified) | 6.25 (≈ 2.87 µg/mL)
4 | COc1ccc(C2C3Cc4cc(OC)c(OC)cc4C3=NN2C(=O)Nc2ccc(C)cc2C)cc1OC (stereo unspecified) | 12.5 (≈ 6.27 µg/mL)
5 | COc1cc2c(cc1OC)C1=NN(C(=O)Nc3ccc(C)cc3C)C(c3ccccc3)C1C2 (stereo unspecified) | > 12.5
6 | COc1ccc(C2C3Cc4cc(OC)c(OC)cc4C3=NN2C(=O)Nc2ccc(C)cc2C)cc1 (stereo unspecified) | > 12.5
7 | COc1cc2c(cc1OC)C1=NN(C(=O)Nc3c(C)cccc3C)C(c3ccncc3)C1C2 (stereo unspecified) | > 10
8 | COc1cc2c(cc1OC)C1=NN(C(=O)Nc3c(C)cccc3C)C(c3ccccc3Cl)C1C2 (stereo unspecified) | 6.25 (≈ 2.97 µg/mL)
9 | COc1cc2c(cc1OC)C1=NN(C(=O)Nc3c(C)cccc3C)C(c3ccc(F)cc3)C1C2 (stereo unspecified) | 6.25 (≈ 2.87 µg/mL)
10 | COc1ccc(C2C3Cc4cc(OC)c(OC)cc4C3=NN2C(=O)Nc2c(C)cccc2C)cc1OC (stereo unspecified) | 12.5 (≈ 6.27 µg/mL)
11 | COc1cc2c(cc1OC)C1=NN(C(=O)Nc3c(C)cccc3C)C(c3ccccc3)C1C2 (stereo unspecified) | 12.5 (≈ 5.52 µg/mL)
12 | COc1ccc(C2C3Cc4cc(OC)c(OC)cc4C3=NN2C(=O)Nc2c(C)cccc2C)cc1 (stereo unspecified) | > 12.5
13 | COc1cc2c(cc1OC)C1=NN(C(N)=S)C(c3ccncc3)C1C2 (stereo unspecified) | 6.25 (≈ 2.22 µg/mL)
14 | COc1cc2c(cc1OC)C1=NN(C(N)=S)C(c3ccccc3Cl)C1C2 (stereo unspecified) | 6.25 (≈ 2.42 µg/mL)
15 | COc1cc2c(cc1OC)C1=NN(C(N)=S)C(c3ccc(F)cc3)C1C2 (stereo unspecified) | 3.12 (≈ 1.16 µg/mL)
16 | COc1ccc(C2C3Cc4cc(OC)c(OC)cc4C3=NN2C(N)=S)cc1OC (stereo unspecified) | 12.5 (≈ 5.17 µg/mL)
17 | COc1cc2c(cc1OC)C1=NN(C(N)=S)C(c3ccccc3)C1C2 (stereo unspecified) | 12.5 (≈ 4.42 µg/mL)
18 | COc1ccc(C2C3Cc4cc(OC)c(OC)cc4C3=NN2C(N)=S)cc1 (stereo unspecified) | 12.5 (≈ 4.79 µg/mL)
19 | NNC(=O)c1ccncc1 [ISONIAZID] | 0.78 (≈ 0.107 µg/mL)
20 | CO[C@H]1/C=C/O[C@@]2(C)Oc3c(C)c(O)c4c(O)c(c(/C=N/N5CCN(C)CC5)c(O)c4c3C2=O)NC(=O)/C(C)=C\C=C\[C@H](C)[C@H](O)[C@@H](C)[C@@H](O)[C@@H](C)[C@H](OC(C)=O)[C@@H]1C [RIFAMPIN] | 0.006 (≈ 0.00494 µg/mL)

Test system: Vero
Test: Cytotoxicity against african green monkey Vero cells up to 62.5 ug/mL after 72 hrs by MTT assay
Assay type: cell-based
Conditions: chlorocebus sabaeus

Row | Compound | Activity
21 | COc1cc2c(cc1OC)C1=NN(C(N)=S)C(c3ccc(F)cc3)C1C2 (stereo unspecified) | Non-toxic
